These results are taken from patent US7659400B2, “Radiolabelled benzamide analogues, their synthesis and use in diagnostic imaging” (Washington University, priority 2003, dated 2010).

Molecules are shown by their SMILES. “And” between values parts separate entries of the source, which are not always exact repeats. Equal entries are not always repeated.

For one data set, the target named is σ1 receptors (Homo sapiens, UniProt Q99720). The conditions noted are these: cited from earlier work.
For data set [1], the target named is σ2 receptors (Homo sapiens, UniProt Q5BJF2). The conditions noted are these: cited from earlier work.
Data set [2] deals with T1, σ2 receptors (Mus musculus, UniProt Q8VD00).
T1 construct: from tissue; host or cells: EMT-6 tumours in female Balb/c mice, in vivo
T1 sequence (Q8VD00 1-176): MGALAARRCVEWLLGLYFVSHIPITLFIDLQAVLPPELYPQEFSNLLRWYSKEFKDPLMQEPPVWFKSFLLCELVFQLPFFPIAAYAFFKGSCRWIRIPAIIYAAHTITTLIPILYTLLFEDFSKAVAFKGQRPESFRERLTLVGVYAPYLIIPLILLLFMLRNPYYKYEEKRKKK
Kind of data set: Blocking study: co-injection of 1 mg/kg YUN-143 in EMT-6 tumor-bearing mice. It counts as in vivo. The conditions noted are these: 1 mg/kg YUN-143, 1 h post-injection. Here is the method: These blocking studies in tumor-bearing mice were conducted by co-injecting 1 mg/kg of cold N-(4-fluorobenzyl) piperidinyl-4-(3-bromophenyl)acetamide (YUN-143) with [^18F]3c or [^18F]3f.

Another data set relates to EMT-6 tumors. The data set is described as follows: Biodistribution of 18F-labeled ligands in mice bearing EMT-6 tumors. The class given is in vivo, female Balb/c mice. As for the experimental part: This example illustrates in vivo evaluation of compounds of the present teachings. All animal experiments were conducted in compliance with the Guidelines for the Care and Use of Research Animals established by Washington University's Animal Studies Committee. EMT-6 mouse mammary adenocarcinoma cells (5×10^5 cells in 100 uL of phosphate-buffered saline) were implanted subcutaneously in the scapular region of female Balb/c mice (˜2-month old and 17-22 g; Charles River Laboratories). […] Groups of at least 4 mice were used for each time point. […] After counting, the percentage of the injected dose per gram of tissue (%ID/g) was calculated. The tumor/organ ratios were calculated by dividing the %ID/g of the tumor by the %ID/g of each organ.

σ1 receptors, sequence (Q99720 whole entry): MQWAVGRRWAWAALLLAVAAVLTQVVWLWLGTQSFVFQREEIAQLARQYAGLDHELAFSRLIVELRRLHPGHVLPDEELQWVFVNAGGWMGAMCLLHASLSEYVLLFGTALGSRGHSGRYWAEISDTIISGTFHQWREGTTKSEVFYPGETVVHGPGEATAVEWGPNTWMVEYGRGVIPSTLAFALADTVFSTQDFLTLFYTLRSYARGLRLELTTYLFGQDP
σ2 receptors (Homo sapiens, UniProt Q5BJF2), sequence (Q5BJF2 whole entry): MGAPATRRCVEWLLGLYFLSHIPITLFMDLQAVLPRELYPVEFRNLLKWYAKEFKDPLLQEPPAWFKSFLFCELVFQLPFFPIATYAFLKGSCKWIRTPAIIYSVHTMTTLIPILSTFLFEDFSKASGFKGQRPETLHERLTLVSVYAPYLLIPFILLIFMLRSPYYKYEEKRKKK

Turning to `O=C(Cc1cccc(Br)c1)NC1CCN(Cc2ccc(F)cc2)CC1` [YUN-143, N-(4-fluorobenzyl)piperidinyl-4-(3-bromophenyl) acetamide], the “affinity for σ1 receptors (in words)” value at σ1 receptors is “high affinity”. Also, the “affinity for σ2 receptors (in words)” value at σ2 receptors [1] is “high affinity”.
For `COc1cc2c(cc1OC)CN(CCCCNC(=O)c1cc(C)ccc1OCC[18F])CC2` [[^18F]3c], at σ2 receptors [2], the “decrease in the tumor:fat ratio on co-injection of YUN-143” value is recorded as around 50% and the “decrease in the tumor:muscle ratio on co-injection of YUN-143” value is around 50%. Further, in the data set with EMT-6 tumors (5 min after i.v. injection), the “Biodistribution: blood” value was found to be 2.49 ± 0.49 %ID/g, the “Biodistribution: bone” value worked out at 2.49 ± 0.19 %ID/g, the “Biodistribution: brain” value worked out at 0.76 ± 0.06 %ID/g and the “Biodistribution: fat” value is 1.95 ± 0.33 %ID/g. In addition, in the data set on EMT-6 tumors (5 min after i.v. injection), the “Biodistribution: heart” value was 3.73 ± 0.15 %ID/g, the “Biodistribution: kidney” value amounted to 29.18 ± 1.92 %ID/g, the “Biodistribution: liver” value came to 23.33 ± 4.22 %ID/g and the “Biodistribution: lung” value is 10.26 ± 0.71 %ID/g. Besides, in the data set with EMT-6 tumors (5 min after i.v. injection), the “Biodistribution: muscle” value was 1.86 ± 0.08 %ID/g and the “Biodistribution: tumor (tumor uptake)” value is listed as 3.67 ± 0.45 %ID/g. In the data set with EMT-6 tumors (30 min after i.v. injection), the “Biodistribution: blood” value stood at 1.16 ± 0.10 %ID/g, the “Biodistribution: bone” value is 0.96 ± 0.15 %ID/g, the “Biodistribution: brain” value is 0.27 ± 0.05 %ID/g and the “Biodistribution: fat” value stood at 0.59 ± 0.13 %ID/g. Further, in the data set on EMT-6 tumors (30 min after i.v. injection), the “Biodistribution: heart” value is reported as 1.15 ± 0.06 %ID/g, the “Biodistribution: kidney” value is listed as 6.86 ± 0.45 %ID/g, the “Biodistribution: liver” value is recorded as 10.51 ± 0.87 %ID/g and the “Biodistribution: lung” value is listed as 2.36 ± 0.19 %ID/g. Also, in the data set with EMT-6 tumors (30 min after i.v. injection), the “Biodistribution: muscle” value is given as 0.70 ± 0.19 %ID/g and the “Biodistribution: tumor (tumor uptake)” value is 2.54 ± 0.27 %ID/g. Also, in the data set on EMT-6 tumors (60 min (1 h) after i.v. injection), the “Biodistribution: tumor (tumor uptake)” value is 1.14 ± 0.10 %ID/g. In addition, in the data set with EMT-6 tumors (60 min after i.v. injection), the “Biodistribution: blood” value is given as 0.56 ± 0.08 %ID/g, the “Biodistribution: bone” value is listed as 0.55 ± 0.07 %ID/g, the “Biodistribution: brain” value was 0.18 ± 0.03 %ID/g and the “Biodistribution: fat” value is reported as 0.22 ± 0.04 %ID/g. In the data set with EMT-6 tumors (60 min after i.v. injection), the “Biodistribution: heart” value is on record as 0.55 ± 0.07 %ID/g, the “Biodistribution: kidney” value is on record as 2.51 ± 0.51 %ID/g, the “Biodistribution: liver” value was 4.14 ± 0.55 %ID/g and the “Biodistribution: lung” value is on record as 0.88 ± 0.12 %ID/g. In addition, in the data set with EMT-6 tumors (60 min after i.v. injection), the “Biodistribution: muscle” value stood at 0.34 ± 0.05 %ID/g. In the data set on EMT-6 tumors (120 min (2 h) after i.v. injection), the “Biodistribution: tumor (tumor uptake)” value is 0.64 %ID/g and 0.64 ± 0.10 %ID/g. Moreover, in the data set with EMT-6 tumors (120 min after i.v. injection), the “Biodistribution: blood” value worked out at 0.35 ± 0.05 %ID/g, the “Biodistribution: bone” value was found to be 0.45 ± 0.11 %ID/g, the “Biodistribution: brain” value stood at 0.12 ± 0.02 %ID/g and the “Biodistribution: fat” value was determined as 0.08 ± 0.02 %ID/g. Further, in the data set on EMT-6 tumors (120 min after i.v. injection), the “Biodistribution: heart” value amounted to 0.27 ± 0.04 %ID/g, the “Biodistribution: kidney” value is listed as 0.87 ± 0.13 %ID/g, the “Biodistribution: liver” value turned out to be 2.05 ± 0.43 %ID/g and the “Biodistribution: lung” value was determined as 0.43 ± 0.07 %ID/g. Besides, the “Biodistribution: muscle” value in the data set with EMT-6 tumors (120 min after i.v. injection) worked out at 0.24 ± 0.08 %ID/g. In addition, the “tumor:fat ratio” value in the data set with EMT-6 tumors (2 h after i.v. injection) is listed as around 8. Further, in the data set on EMT-6 tumors (mouse, in vivo), the “clearance from the blood (in words)” value is recorded as “rapid clearance from the blood”.
